Here are results for 2 molecules from ChEMBL document CHEMBL1150895, “Spongiacidins A-D, new bromopyrrole alkaloids from hymeniacidon sponge” (J Nat Prod, 1998).

In experiment [1] the target is Cyclin-dependent kinase 4 (Homo sapiens, UniProt P11802). Briefly: Inhibition of CDK4.
The target in experiment [2] is Receptor tyrosine-protein kinase erbB-2 (Homo sapiens, UniProt P04626). Briefly: Inhibition of c-erbB-2.
Receptor tyrosine-protein kinase erbB-2, sequence (P04626 whole entry): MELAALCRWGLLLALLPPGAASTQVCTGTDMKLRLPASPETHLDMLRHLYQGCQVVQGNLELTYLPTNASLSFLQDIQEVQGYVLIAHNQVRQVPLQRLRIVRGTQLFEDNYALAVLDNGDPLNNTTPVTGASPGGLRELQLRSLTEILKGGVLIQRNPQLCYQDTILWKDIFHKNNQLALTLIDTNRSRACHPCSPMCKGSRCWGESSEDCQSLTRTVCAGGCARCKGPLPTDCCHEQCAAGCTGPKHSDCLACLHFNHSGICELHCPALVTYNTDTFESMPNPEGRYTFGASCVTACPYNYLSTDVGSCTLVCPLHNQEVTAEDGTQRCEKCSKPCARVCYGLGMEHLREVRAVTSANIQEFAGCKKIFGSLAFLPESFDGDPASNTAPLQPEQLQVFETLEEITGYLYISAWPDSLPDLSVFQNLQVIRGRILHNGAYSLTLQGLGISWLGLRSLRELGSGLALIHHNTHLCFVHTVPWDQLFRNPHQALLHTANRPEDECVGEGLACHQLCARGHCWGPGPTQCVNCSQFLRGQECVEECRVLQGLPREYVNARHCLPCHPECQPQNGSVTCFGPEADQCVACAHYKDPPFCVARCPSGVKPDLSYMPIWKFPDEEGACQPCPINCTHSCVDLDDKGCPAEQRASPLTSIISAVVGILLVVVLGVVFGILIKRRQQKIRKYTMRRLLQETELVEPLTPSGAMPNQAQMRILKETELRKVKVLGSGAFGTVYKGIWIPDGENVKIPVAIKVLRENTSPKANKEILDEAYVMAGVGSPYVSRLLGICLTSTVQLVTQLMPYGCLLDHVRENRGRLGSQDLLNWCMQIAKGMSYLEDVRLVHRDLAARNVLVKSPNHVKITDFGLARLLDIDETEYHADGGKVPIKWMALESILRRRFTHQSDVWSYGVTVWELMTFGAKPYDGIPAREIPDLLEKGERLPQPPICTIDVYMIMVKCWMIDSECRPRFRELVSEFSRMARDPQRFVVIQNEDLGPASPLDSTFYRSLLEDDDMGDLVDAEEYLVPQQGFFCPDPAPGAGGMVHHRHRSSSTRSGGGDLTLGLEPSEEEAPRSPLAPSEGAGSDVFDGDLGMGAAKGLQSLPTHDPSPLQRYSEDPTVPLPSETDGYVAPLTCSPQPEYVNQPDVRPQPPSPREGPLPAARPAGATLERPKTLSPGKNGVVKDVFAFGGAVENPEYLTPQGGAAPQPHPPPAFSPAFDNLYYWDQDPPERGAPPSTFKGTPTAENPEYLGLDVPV

Cyclin-dependent kinase 4, sequence (P11802 whole entry): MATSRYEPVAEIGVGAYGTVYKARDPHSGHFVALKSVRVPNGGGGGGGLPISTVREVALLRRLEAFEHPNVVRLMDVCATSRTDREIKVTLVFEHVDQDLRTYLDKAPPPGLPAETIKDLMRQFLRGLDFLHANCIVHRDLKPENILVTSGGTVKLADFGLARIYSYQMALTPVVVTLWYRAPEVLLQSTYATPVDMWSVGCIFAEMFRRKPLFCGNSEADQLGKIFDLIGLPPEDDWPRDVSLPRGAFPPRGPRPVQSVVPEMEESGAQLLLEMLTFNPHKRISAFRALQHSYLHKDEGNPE

One may read the IC50 as the concentration needed to halve the response being measured. For the molecule `O=C1NC(=O)/C(=C2\CCNC(=O)c3[nH]c(Br)cc32)N1` [SPONGIACIDIN D], the IC50 in experiment [1] and in experiment [2] was over 154 µM each time.

Take `O=C1NC(=O)/C(=C2\CCNC(=O)c3[nH]ccc32)N1` [SPONGIACIDIN C]: the IC50 in experiment [1] and in experiment [2] was over 203 µM in each case.
